Earlier results, collected in patent publication US20210268046A1, “CANNABINOID & PROBIOTIC SUPPOSITORIES & METHODS OF USE” (HoneyHills TX, LLC, priority 2020, published 2021).

Conditions: for psychotic symptoms: acute paranoid schizophrenia

Compound | psychotic symptoms | side effects (compared with Amisuipride)
CCN1CCCC1CNC(=O)c1cc(S(=O)(=O)CC)c(N)cc1OC (stereo not drawn) [Amisuipride] | significant decrease | 
C=C(C)[C@@H]1CCC(C)=C[C@H]1c1c(O)cc(CCCCC)cc1O [cannabidiol, Cannabidiol] | significant decrease | fewer side effects
